Legend:
[1] = target: T1, FLT3-ITD (Homo sapiens, UniProt P36888); experiment: ADP Glo kinase assay, FLT3-ITD; assay type: biochemical; details: Km ATP 100 μM, read-out: Enzymatic inhibition, Ki, FLT3-ITD
T1 sequence (P36888 1-993): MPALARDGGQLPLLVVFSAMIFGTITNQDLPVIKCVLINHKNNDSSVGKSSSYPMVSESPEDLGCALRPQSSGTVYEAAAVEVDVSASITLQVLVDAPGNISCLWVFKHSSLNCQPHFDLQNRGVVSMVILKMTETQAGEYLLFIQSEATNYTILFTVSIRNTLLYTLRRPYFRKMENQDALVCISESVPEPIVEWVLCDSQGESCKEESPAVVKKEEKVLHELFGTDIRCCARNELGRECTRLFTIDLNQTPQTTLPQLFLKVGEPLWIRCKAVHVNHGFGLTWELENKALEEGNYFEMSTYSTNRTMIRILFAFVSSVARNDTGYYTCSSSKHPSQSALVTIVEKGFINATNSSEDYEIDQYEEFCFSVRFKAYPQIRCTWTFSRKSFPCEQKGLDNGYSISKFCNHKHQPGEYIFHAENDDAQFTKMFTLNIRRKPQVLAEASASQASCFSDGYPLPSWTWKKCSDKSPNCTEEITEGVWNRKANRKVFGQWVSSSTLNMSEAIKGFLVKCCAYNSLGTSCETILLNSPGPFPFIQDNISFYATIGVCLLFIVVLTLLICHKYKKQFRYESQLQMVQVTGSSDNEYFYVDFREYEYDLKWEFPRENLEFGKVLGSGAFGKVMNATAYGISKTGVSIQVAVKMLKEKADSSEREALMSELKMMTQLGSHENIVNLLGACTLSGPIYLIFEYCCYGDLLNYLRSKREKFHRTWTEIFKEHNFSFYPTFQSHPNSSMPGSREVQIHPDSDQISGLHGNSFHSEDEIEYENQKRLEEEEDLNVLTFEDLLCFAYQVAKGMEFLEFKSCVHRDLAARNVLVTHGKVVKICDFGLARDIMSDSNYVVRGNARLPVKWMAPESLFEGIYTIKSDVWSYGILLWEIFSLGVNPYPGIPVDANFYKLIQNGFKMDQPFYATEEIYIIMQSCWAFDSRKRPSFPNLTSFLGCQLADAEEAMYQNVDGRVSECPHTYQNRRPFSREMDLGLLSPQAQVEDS
How it was run: (§1)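 Test compounds were run as 1:3 serial dilutions over 10 concentrations (10-0.0005 μM) in 0.5% DMSO. Kinase reactions proceeded for an optimised time at room temperature before being stopped with ADP Glo reagent.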

[2] = target: CDK2/CyclinA2 (Homo sapiens, UniProt P24941); experiment: ADP Glo kinase assay, CDK2/CyclinA2; assay type: biochemical; details: for Ki: Km ATP, read-out: Enzymatic inhibition, Ki, CDK2 A; for remaining activity at 1 µM: compound at 1 μM, read-out: Residual enzymatic activity (%) at 1 μM, CDK2 A
How it was run: as §1

[3] = target: CDK9/CyclinT1 (Homo sapiens, UniProt P50750); experiment: ADP Glo kinase assay, CDK9/CyclinT1; assay type: biochemical; details: CDK9/CyclinT1; Km ATP; read-out: Enzymatic inhibition, Ki, CDK9 T1
How it was run: as §1

[4] = target: CDK7/CyclinH/Mat1 (Homo sapiens, UniProt P50613); experiment: ADP Glo kinase assay, CDK7/CyclinH/Mat1; assay type: biochemical; details: for remaining activity at 1 µM: compound at 1 μM, read-out: Residual enzymatic activity (%) at 1 μM, CDK7 H; for Ki: Km ATP, read-out: Enzymatic inhibition, Ki, CDK7 H
How it was run: as §1

[5] = target: CDK4/CyclinD1 (Homo sapiens, UniProt P11802); experiment: ADP Glo kinase assay, CDK4/CyclinD1; assay type: biochemical; details: for remaining activity at 1 µM: compound at 1 μM, read-out: Residual enzymatic activity (%) at 1 μM, CDK4 D1; for Ki: Km ATP, read-out: Enzymatic inhibition, Ki, CDK4 D1
How it was run: as §1

[6] = target: CDK1/CyclinB (Homo sapiens, UniProt P06493); experiment: ADP Glo kinase assay, CDK1/CyclinB; assay type: biochemical; details: for remaining activity at 1 µM: compound at 1 μM, read-out: Residual enzymatic activity (%) at 1 μM, CDK1 B; for Ki: Km ATP, read-out: Enzymatic inhibition, Ki, CDK1 B
How it was run: as §1

[7] = target: CDK6/CyclinD3 (Homo sapiens, UniProt Q00534); experiment: ADP Glo kinase assay, CDK6/CyclinD3; assay type: biochemical; details: for remaining activity at 1 µM: compound at 1 μM, read-out: Residual enzymatic activity (%) at 1 μM, CDK6 D3; for Ki: Km ATP, read-out: Enzymatic inhibition, Ki, CDK6 D3
How it was run: as §1

[8] = tested on: MV-4-11; experiment: Proliferation assay (resazurin, leukemia cell lines), MV-4-11; assay type: cell-based; details: Homo sapiens, MV4-11, read-out: 72 h Growth inhibition GI50, MV-4-11 cells
Text: The following compounds were used as comparators.

CDK9/CyclinT1, sequence (P50750 whole entry, species assumed): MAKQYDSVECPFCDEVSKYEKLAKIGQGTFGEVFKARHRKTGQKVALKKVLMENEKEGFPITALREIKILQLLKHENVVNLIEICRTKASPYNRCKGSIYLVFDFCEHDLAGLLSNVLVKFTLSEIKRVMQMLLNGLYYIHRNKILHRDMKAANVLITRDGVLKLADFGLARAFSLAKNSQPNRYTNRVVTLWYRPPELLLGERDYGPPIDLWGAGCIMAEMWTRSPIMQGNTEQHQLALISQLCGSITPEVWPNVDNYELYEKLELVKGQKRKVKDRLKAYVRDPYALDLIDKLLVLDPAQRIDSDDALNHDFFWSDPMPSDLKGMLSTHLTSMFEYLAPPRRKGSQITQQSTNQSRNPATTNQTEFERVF
CDK9/CyclinT1, sequence (O60563 whole entry partner, species assumed): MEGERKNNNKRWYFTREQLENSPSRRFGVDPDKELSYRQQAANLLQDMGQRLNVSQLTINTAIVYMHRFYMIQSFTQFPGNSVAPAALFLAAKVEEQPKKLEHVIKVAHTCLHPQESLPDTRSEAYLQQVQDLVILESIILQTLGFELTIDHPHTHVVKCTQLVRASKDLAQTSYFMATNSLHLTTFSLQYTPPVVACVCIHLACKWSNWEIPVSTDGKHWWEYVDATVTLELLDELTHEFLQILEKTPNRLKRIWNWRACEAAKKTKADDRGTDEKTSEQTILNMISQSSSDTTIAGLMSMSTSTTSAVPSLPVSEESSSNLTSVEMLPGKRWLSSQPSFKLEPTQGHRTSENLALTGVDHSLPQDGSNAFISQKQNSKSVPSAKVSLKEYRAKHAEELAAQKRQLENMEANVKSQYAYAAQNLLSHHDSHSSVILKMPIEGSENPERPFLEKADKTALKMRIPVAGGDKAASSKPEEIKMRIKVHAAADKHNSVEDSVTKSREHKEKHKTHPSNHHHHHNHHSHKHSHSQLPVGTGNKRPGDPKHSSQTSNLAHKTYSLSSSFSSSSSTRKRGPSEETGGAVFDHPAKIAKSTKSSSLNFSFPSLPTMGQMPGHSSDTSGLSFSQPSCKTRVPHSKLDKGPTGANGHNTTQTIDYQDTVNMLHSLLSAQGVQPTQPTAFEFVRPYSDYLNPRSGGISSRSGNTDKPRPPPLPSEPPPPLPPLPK
CDK7/CyclinH/Mat1, sequence (P50613 whole entry, species assumed): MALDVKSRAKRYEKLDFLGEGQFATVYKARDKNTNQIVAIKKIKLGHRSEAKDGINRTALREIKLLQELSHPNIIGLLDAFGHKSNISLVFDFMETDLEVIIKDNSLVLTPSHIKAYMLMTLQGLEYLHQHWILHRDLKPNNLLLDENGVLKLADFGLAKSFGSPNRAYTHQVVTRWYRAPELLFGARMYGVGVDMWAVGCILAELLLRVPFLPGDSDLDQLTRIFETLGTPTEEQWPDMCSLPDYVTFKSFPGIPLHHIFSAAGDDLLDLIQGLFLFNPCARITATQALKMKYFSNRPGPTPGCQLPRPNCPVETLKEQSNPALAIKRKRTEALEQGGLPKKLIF
CDK7/CyclinH/Mat1, sequence (P51946 whole entry partner, species assumed): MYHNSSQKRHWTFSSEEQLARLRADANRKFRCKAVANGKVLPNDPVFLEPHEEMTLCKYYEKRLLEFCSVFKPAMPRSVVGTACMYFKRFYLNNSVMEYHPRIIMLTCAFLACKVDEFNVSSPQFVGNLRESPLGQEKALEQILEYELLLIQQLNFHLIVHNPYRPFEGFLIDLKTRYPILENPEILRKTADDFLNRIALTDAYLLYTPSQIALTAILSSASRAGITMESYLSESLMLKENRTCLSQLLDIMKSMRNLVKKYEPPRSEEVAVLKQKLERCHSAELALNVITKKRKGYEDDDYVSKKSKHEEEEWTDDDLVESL
CDK7/CyclinH/Mat1, sequence (P51948 whole entry partner, species assumed): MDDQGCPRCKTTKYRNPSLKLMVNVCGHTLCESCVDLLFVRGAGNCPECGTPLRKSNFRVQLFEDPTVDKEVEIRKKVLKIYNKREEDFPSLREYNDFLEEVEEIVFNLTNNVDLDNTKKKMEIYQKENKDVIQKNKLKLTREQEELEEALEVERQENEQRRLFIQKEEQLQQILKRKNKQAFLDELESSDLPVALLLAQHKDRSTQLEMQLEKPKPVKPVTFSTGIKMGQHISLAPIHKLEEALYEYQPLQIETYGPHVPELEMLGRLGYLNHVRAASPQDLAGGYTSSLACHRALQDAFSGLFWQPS
CDK4/CyclinD1, sequence (P11802 whole entry, species assumed): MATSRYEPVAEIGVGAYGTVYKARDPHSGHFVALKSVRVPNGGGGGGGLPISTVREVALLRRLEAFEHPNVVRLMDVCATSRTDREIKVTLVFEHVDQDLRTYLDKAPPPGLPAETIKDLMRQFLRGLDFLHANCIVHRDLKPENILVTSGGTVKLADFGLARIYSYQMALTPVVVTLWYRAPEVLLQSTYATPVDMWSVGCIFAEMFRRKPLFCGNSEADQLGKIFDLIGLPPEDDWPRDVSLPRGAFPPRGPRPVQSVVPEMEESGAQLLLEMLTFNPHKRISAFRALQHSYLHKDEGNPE
CDK4/CyclinD1, sequence (P24385 whole entry partner, species assumed): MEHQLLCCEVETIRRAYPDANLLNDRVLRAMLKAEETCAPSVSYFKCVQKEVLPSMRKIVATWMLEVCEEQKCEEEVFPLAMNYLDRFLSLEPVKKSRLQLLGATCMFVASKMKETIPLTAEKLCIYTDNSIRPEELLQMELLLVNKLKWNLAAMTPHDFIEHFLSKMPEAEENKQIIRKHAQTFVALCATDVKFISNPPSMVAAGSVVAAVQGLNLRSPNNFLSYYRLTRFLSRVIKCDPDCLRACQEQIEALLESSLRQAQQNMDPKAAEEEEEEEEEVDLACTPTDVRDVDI
CDK6/CyclinD3, sequence (Q00534 whole entry, species assumed): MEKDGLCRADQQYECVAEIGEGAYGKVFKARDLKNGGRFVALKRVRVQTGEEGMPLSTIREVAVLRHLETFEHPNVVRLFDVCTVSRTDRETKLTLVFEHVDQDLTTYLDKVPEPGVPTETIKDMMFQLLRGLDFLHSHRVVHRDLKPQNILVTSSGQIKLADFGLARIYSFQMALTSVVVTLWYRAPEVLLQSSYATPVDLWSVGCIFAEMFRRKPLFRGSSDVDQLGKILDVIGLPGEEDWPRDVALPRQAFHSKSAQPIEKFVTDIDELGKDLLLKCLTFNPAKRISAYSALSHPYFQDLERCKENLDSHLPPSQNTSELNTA
CDK6/CyclinD3, sequence (P30281 whole entry partner, species assumed): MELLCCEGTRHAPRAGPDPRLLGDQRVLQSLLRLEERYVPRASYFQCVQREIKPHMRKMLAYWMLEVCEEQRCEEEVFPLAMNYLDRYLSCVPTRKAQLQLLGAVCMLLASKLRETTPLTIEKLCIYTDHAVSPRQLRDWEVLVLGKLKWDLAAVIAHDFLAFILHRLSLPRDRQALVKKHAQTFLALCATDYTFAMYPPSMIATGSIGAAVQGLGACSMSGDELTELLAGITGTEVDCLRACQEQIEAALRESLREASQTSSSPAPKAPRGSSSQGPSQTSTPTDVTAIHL
CDK1/CyclinB, sequence (P06493 whole entry, species assumed): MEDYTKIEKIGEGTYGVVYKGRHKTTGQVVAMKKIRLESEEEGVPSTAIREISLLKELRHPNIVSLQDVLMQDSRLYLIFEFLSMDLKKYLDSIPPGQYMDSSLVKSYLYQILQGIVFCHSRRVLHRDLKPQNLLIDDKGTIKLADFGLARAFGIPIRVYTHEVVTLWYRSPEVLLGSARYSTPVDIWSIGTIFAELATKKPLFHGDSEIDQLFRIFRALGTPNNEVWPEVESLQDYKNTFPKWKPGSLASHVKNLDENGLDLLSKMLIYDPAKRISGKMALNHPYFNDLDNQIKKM
CDK1/CyclinB, sequence (P14635 whole entry partner, species assumed): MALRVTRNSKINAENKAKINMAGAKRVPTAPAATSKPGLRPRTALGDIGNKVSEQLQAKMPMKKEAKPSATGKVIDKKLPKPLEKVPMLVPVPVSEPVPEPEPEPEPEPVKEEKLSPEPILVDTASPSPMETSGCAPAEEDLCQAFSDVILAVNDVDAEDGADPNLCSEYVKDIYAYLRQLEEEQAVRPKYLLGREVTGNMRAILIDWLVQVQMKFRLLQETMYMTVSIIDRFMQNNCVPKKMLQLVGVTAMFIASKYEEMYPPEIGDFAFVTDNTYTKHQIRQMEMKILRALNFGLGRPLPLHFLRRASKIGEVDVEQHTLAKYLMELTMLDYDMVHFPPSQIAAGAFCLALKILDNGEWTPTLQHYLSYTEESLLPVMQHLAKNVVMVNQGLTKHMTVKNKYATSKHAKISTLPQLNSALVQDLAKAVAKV

CC(C)N1CCN(c2ccc(Nc3nccc(-c4cnc5ccc(-c6ccncc6)cn45)n3)cn2)CC1 [Compound 40, N-(6-(4-Isopropylpiperazin-1-yl)pyridin-3-yl)-4-(6-(pyridin-4-yl)imidazo[1,2-a]pyridin-3-yl)pyrimidin-2-amine]
Ki [1]: 11 nM | Ki [2]: 344 nM | Ki [3]: 12 nM | remaining activity at 1 µM [4]: 32% | remaining activity at 1 µM [5]: 57% | remaining activity at 1 µM [6]: 41% | remaining activity at 1 µM [7]: 52% | GI50 [8]: 47 nM

Brc1ccc2ncc(-c3ccnc(Nc4ccc(N5CCCC5)nc4)n3)n2c1 [Compound 26, 4-(6-Bromoimidazo[1,2-a]pyridin-3-yl)-N-(6-(pyrrolidin-1-yl)pyridin-3-yl)pyrimidin-2-amine]
Ki [1]: 91 nM | remaining activity at 1 µM [2]: 27% | Ki [3]: 261 nM | Ki [4]: > 5000 nM | remaining activity at 1 µM [5]: 92% | remaining activity at 1 µM [6]: 60% | remaining activity at 1 µM [7]: 53% | GI50 [8]: 37 nM

Cc1nc2ccc(F)cn2c1-c1ccnc(Nc2ccc(N3CCN(C)CC3)nc2)n1 [Compound 2, 4-(6-Fluoro-2-methylimidazo[1,2-a]pyridin-3-yl)-N-(6-(4-methylpiperazin-1-yl)pyridin-3-yl)pyrimidin-2-amine]
Ki [1]: 3 nM | Ki [2]: 63 nM | Ki [3]: 168 nM | Ki [4]: 560 nM | Ki [5]: 55 nM | Ki [6]: 152 nM | Ki [7]: 54 nM | GI50 [8]: 78 nM

CC(=O)N1CCN(c2ccc(Nc3nccc(-c4cnc5ccc(-c6ccccc6)cn45)n3)cn2)CC1 [Compound 45, 1-(4-(5-((4-(6-Phenylimidazo[1,2-a]pyridin-3-yl)pyrimidin-2-yl)amino)pyridin-2-yl)piperazin-1-yl)ethan-1-one]
Ki [1]: 444 nM | remaining activity at 1 µM [2]: 63% | Ki [3]: 54 nM | remaining activity at 1 µM [4]: 79% | remaining activity at 1 µM [5]: 91% | remaining activity at 1 µM [6]: 60% | remaining activity at 1 µM [7]: 60% | GI50 [8]: 12 nM

CS(=O)(=O)N1CCN(c2ccc(Nc3nccc(-c4cnc5ccc(-c6cccnc6)cn45)n3)cn2)CC1 [Compound 19, N-(6-(4-(Methylsulfonyl)piperazin-1-yl)pyridin-3-yl)-4-(6-(pyridin-3-yl)imidazo[1,2-a]pyridin-3-yl)pyrimidin-2-amine]
Ki [1]: 4 nM | remaining activity at 1 µM [2]: 33% | Ki [3]: 16 nM | Ki [4]: 1690 nM | remaining activity at 1 µM [5]: 83% | Ki [6]: 776 nM | Ki [7]: > 5000 nM | GI50 [8]: 17 nM

CCCNc1ccc(Nc2nccc(-c3cnc4ccc(-c5cnn(C(F)F)c5)cn34)n2)cn1 [Compound 76, N^5-(4-(6-(1-(Difluoromethyl)-1H-pyrazol-4-yl)imidazo[1,2-a]pyridin-3-yl)pyrimidin-2-yl)-N^2-propylpyridine-2,5-diamine]
Ki [1]: 100 nM | remaining activity at 1 µM [2]: 62% | Ki [3]: 629 nM | remaining activity at 1 µM [4]: 57% | remaining activity at 1 µM [5]: 97% | remaining activity at 1 µM [6]: 96% | remaining activity at 1 µM [7]: 71% | GI50 [8]: 39 nM

Cc1cnc(Nc2ccc(N3CCNCC3)nc2)nc1-c1cnc2ccccn12 [Compound 13, 4-(Imidazo[1,2-a]pyridin-3-yl)-5-methyl-N-(6-(piperazin-1-yl)pyridin-3-yl)pyrimidin-2-amine]
Ki [1]: 6 nM | Ki [2]: 170 nM | Ki [3]: 494 nM | Ki [4]: 410 nM | Ki [5]: 408 nM | Ki [6]: 500 nM | Ki [7]: 299 nM | GI50 [8]: 7 nM

CS(=O)(=O)N1CCN(c2ccc(Nc3nccc(-c4cnc5ccc(-c6ccccc6)cn45)n3)cn2)CC1 [Compound 17, N-(6-(4-(Methylsulfonyl)piperazin-1-yl)pyridin-3-yl)-4-(6-phenylimidazo[1,2-a]pyridin-3-yl)pyrimidin-2-amine]
Ki [1]: 16 nM | Ki [2]: > 1000 nM | Ki [3]: 28 nM | Ki [4]: > 1000 nM | Ki [5]: > 500 nM | Ki [6]: > 5000 nM | Ki [7]: > 5000 nM | GI50 [8]: 6 nM

CC(C)N1CCN(c2ccc(Nc3nccc(-c4cnc5ccc(-c6ccsc6)cn45)n3)cn2)CC1 [Compound 54, N-(6-(4-Isopropylpiperazin-1-yl)pyridin-3-yl)-4-(6-(thiophen-3-yl)imidazo[1,2-a]pyridin-3-yl)pyrimidin-2-amine]
Ki [1]: 11 nM | Ki [2]: 376 nM | Ki [3]: 14 nM | remaining activity at 1 µM [4]: 29% | remaining activity at 1 µM [5]: 48% | remaining activity at 1 µM [6]: 32% | remaining activity at 1 µM [7]: 24% | GI50 [8]: 50 nM

CC(=O)N1CCN(c2ccc(Nc3nccc(-c4cnc5ccc(-c6cn[nH]c6)cn45)n3)cn2)CC1 [Compound 47, 1-(4-(5-((4-(6-(1H-Pyrazol-4-yl)imidazo[1,2-a]pyridin-3-yl)pyrimidin-2-yl)amino)pyridin-2-yl)piperazin-1-yl)ethan-1-one]
Ki [1]: 25 nM | Ki [2]: 39 nM | Ki [3]: 45 nM | Ki [4]: 262 nM | remaining activity at 1 µM [5]: 51% | Ki [6]: 116 nM | Ki [7]: 444 nM | GI50 [8]: 29 nM

O=C(c1ccc(Nc2ncc(F)c(-c3cnc4ccc(-c5ccccc5)cn34)n2)cn1)N1CCCCC1 [Compound 32, (5-((5-Fluoro-4-(6-phenylimidazo[1,2-a]pyridin-3-yl)pyrimidin-2-yl)amino)pyridin-2-yl) (piperidin-1-yl)methanone]
Ki [1]: > 1000 nM | remaining activity at 1 µM [2]: 89% | Ki [3]: > 1000 nM | remaining activity at 1 µM [4]: 100% | remaining activity at 1 µM [5]: 91% | remaining activity at 1 µM [6]: 96% | remaining activity at 1 µM [7]: 44% | GI50 [8]: 620 nM

Cc1cnc(Nc2ccc(N3CCOCC3)nc2)nc1-c1cnc2ccccn12 [Compound 14, 4-(Imidazo[1,2-a]pyridin-3-yl)-5-methyl-N-(6-morpholinopyridin-3-yl)pyrimidin-2-amine]
Ki [1]: 9 nM | Ki [2]: 64 nM | Ki [3]: > 5000 nM | Ki [4]: 1730 nM | remaining activity at 1 µM [5]: 50% | Ki [6]: 150 nM | Ki [7]: 1600 nM | GI50 [8]: 49 nM

CN1CCN(c2ccc(Nc3nccc(-c4cnc5ccc(Br)cn45)n3)cn2)CC1 [Compound 5, 4-(6-Bromoimidazo[1,2-a]pyridin-3-yl)-N-(6-(4-methylpiperazin-1-yl)pyridin-3-yl)pyrimidin-2-amine]
Ki [1]: 79 nM | Ki [2]: 98 nM | Ki [3]: 5 nM | Ki [4]: 2360 nM | Ki [5]: 712 nM | Ki [6]: 317 nM | Ki [7]: 716 nM | GI50 [8]: 7 nM

Fc1cnc(Nc2ccc(Cl)nc2)nc1-c1cnc2ccc(-c3ccccc3)cn12 [Compound 34, N-(6-Chloropyridin-3-yl)-5-fluoro-4-(6-phenylimidazo[1,2-a]pyridin-3-yl)pyrimidin-2-amine]
Ki [1]: > 1000 nM | remaining activity at 1 µM [2]: 86% | Ki [3]: 330 nM | remaining activity at 1 µM [4]: 92% | remaining activity at 1 µM [5]: 92% | remaining activity at 1 µM [6]: 100% | remaining activity at 1 µM [7]: 47% | GI50 [8]: 920 nM

CN(C)c1ccc(Nc2nccc(-c3cnc4ccc(Br)cn34)n2)cn1 [Compound 65, N^5-(4-(6-Bromoimidazo[1,2-a]pyridin-3-yl)pyrimidin-2-yl)-N^2,N^2-dimethylpyridine-2,5-diamine]
Ki [1]: 24 nM | remaining activity at 1 µM [2]: 39% | Ki [3]: 142 nM | remaining activity at 1 µM [4]: 71% | remaining activity at 1 µM [5]: 86% | remaining activity at 1 µM [6]: 56% | Ki [7]: 159 nM | GI50 [8]: 41 nM
